Like-named read-outs stand apart in the source and are kept apart here.
Tests used:
Abl kinase (h) = Abl kinase (h) (Homo sapiens (Human), UniProt P00519); experiment: Cerep kinase profiling, HTRF assay, Abl kinase; assay type: biochemical
Experimental: The inhibitory activity of the compounds of the chemical series on different protein kinases was evaluated by Cerep (Cerep Kinase Profiling Service; www.cerep.com). The kinases used in the tests in vitro are human recombinant proteins expressed in human cells, insect cells or in bacteria. […] The activity of the kinase was then detected by an HTRF assay. The HTRF assay (CisBio International) is based on fluorescence transfer, using Europium (Eu3+) cryptate and XL665 respectively as donor and acceptor. When the biotinylated or tagged substrate is phosphorylated by the kinase, it reacts with a cryptate-labelled phosphospecific antibody. Addition of Streptavidin-XL665, SA-XL665, (or anti-tag antibody XL665) leads to juxtaposition of the cryptate and of the fluorophore XL665, which is reflected in fluorescence resonance energy transfer (FRET). The intensity of FRET depends on the quantity of cryptate-labelled antibody bound to the substrate, which is proportional to the quantity of phosphorylated substrate (Mathis, G. Probing molecular interactions with homogeneous techniques based on rare earth cryptates and fluorescence energy transfer.

Src kinase = Src kinase (Homo sapiens (Human), UniProt P12931); experiment: Reaction Biology Corp. kinase assay, Src; details: read-out: % inhibition of kinase activity, Src (category), 10 μM; compounds tested by Reaction Biology Corp.
[1] = 10 μM, compounds tested by Cerep, read-out: % inhibition of kinase activity, Abl WT (category)
[2] = Table 6, compound incubated at 10 μM, read-out: Percentage inhibition of kinase Abl
[3] = Table 9, Cerep, 5 concentrations 10^−10 M to 10^−4 M, read-out: IC50 in M Abl
[4] = compounds tested by Cerep, read-out: IC50 on kinase Abl WT (category)

SMILES	inhibition at 10 µM (Abl kinase (h); [1])	inhibition at 10 µM (Abl kinase (h); [2])	IC50 (Abl kinase (h); [3])	IC50 (Abl kinase (h); [4])	inhibition at 10 µM (Src kinase)
CC1CCCCC1NCc1cc2cc(NC(=O)c3ccccc3Br)cnc2[nH]1 (centres unmarked) [ND0026]	< 10%	8%			
O=C(Nc1cnc2[nH]c(Cn3ccnc3)cc2c1)c1ccccc1Br [ND0031]	> 50%	86%	4 µM	0.1 to 10 µM	
COC(=O)c1cc2cc(Nc3cccc(Br)c3)cnc2[nH]1 [ND0104]					< 10%
COC(=O)c1cc2cc(NC(=O)c3cccc(C#N)c3)cnc2[nH]1 [ND0051, Methyl 5-(3-cyanobenzamido)-1H-pyrrolo[2,3-b]pyridine-2-carboxylate]	10 to 50%	20%			
N#Cc1ccc(NCc2cc3cc(NC(=O)c4ccccc4Br)cnc3[nH]2)cc1 [ND0032]	10 to 50%	27%			
COc1ccc(OC(=O)c2cc3cc(NC(=O)c4ccccc4)cnc3[nH]2)cc1 [ND0004, 5-(benzamido)-1H-pyrrolo[2,3-b]pyridine-2-4-methoxyphenyl carboxylate]	10 to 50%	31%			
COC(=O)c1cc2cc(Nc3ccc(OC)cc3)cnc2[nH]1 [ND0109]					10 to 50%
O=C(Nc1cnc2[nH]c(CO)cc2c1)c1ccccc1Br [ND0019, 2-bromo-N-(2-(hydroxymethyl)-1H-pyrrolo[2,3-b]pyridin-5-yl)benzamide]	> 50%	82%			
Cc1cccc(NCc2cc3cc(NC(=O)c4ccccc4Br)cnc3[nH]2)c1 [ND0040]	10 to 50%	21%			
O=C(Nc1cnc2[nH]c(C(=O)NCCN3CCOCC3)cc2c1)c1cccc(F)c1 [ND0006, 5-(3-fluorobenzamido)-N-(2-morpholinoethyl)-1H-pyrrolo[2,3-b]pyridine-2-carboxamide]	10 to 50%	33%	> 100 µM	> 10 µM	
CN(C)CCCNC(=O)c1cc2cc(NC(=O)c3ccc4nccnc4c3)cnc2[nH]1 [ND0012, N-(2-(3-(dimethylamino)propylcarbamoyl)-1H-pyrrolo[2,3-b]pyridin-5-yl)quinoxaline-6-carboxamide]	< 10%	8%			
O=C(Nc1cnc2[nH]c(C(=O)N3CCOCC3)cc2c1)c1cc([N+](=O)[O-])ccc1F [ND0010, 5-(2-fluoro-5-nitrobenzamido)-2-morpholinocarbonyl-1H-pyrrolo[2,3-b]pyridine]	< 10%	1%	> 100 µM	> 10 µM	
COC(=O)c1cc2cc(NC(=O)C(C)C)cnc2[nH]1 [ND0045, Methyl 5-(isobutyramido)-1H-pyrrolo[2,3-b]pyridine-2-carboxylate]	> 50%	58%			
COC(=O)c1cc2cc(Nc3cccc(OC)c3)cnc2[nH]1 [ND0102]					10 to 50%
CCCSc1ncccc1C(=O)Nc1cnc2[nH]c(C(=O)OC)cc2c1 [ND0060, Methyl 5-(2-(propylthio)pyridine-3-carboxamido)-1H-pyrrolo[2,3-b]pyridine-2-carboxylate]	10 to 50%	16%			
COC(=O)c1cc2cc(Nc3ccc(Br)cc3)cnc2[nH]1 [ND0107]					10 to 50%

SMILES	inhibition at 10 µM (Abl kinase (h); [1])	inhibition at 10 µM (Abl kinase (h); [2])	IC50 (Abl kinase (h); [3])	IC50 (Abl kinase (h); [4])	inhibition at 10 µM (Src kinase)
COC(=O)c1cc2cc(NC(=O)c3cccc(F)c3)cnc2[nH]1 [ND0053, Methyl 5-(3-fluorobenzamido)-1H-pyrrolo[2,3-b]pyridine-2-carboxylate]	10 to 50%	33%			
COc1cccc(NCc2cc3cc(NC(=O)c4ccccc4Br)cnc3[nH]2)c1 [ND0041]	10 to 50%	14%			
N#Cc1ccccc1NCc1cc2cc(NC(=O)c3ccccc3Br)cnc2[nH]1 [ND0036]	10 to 50%	47%			
Cc1nc(-c2cccc(C(=O)Nc3cnc4[nH]c(C(=O)NCCCN(C)C)cc4c3)c2)cs1 [ND0011, 5-(3-(2-methylthiazol-4-yl)benzamido)-N-(3-(dimethylamino)propyl)-1H-pyrrolo[2,3-b]pyridine-2-carboxamide]	< 10%	6%	> 100 µM	> 10 µM	
O=C(Nc1cnc2[nH]c(C[C@H]3CCCO3)cc2c1)c1ccccc1Br [ND0025]	10 to 50%	39%			
NC(=O)c1cc2cc(NC(=O)c3cccc(F)c3)cnc2[nH]1 [ND0005, 5-(3-Fluorobenzamido)-1H-pyrrolo[2,3-b]pyridine-2-carboxamide]	10 to 50%	10%			
COC(=O)c1cc2cc(NC(=O)c3ccc(-c4csc(C)n4)cc3)cnc2[nH]1 [ND0054, Methyl 5-(4-(2-methylthiazol-4-yl)benzamido)-1H-pyrrolo[2,3-b]pyridine-2-carboxylate]	10 to 50%	15%			
O=C(Nc1cnc2[nH]c(CNCc3ccccc3)cc2c1)c1ccccc1Br [ND0028]	10 to 50%	14%			
O=C(Nc1cnc2[nH]c(CNc3cccc([N+](=O)[O-])c3)cc2c1)c1ccccc1Br [ND0034]	10 to 50%	17%			
CCC(=O)Nc1cnc2[nH]c(C(=O)OC)cc2c1 [ND0046, Methyl 5-(propionamido)-1H-pyrrolo[2,3-b]pyridine-2-carboxylate]	10 to 50%	49%			
COC(=O)c1cc2cc(NC(=O)c3cccc(F)c3F)cnc2[nH]1 [ND0061, Methyl 5-(2,3-difluorobenzamido)-1H-pyrrolo[2,3-b]pyridine-2-carboxylate]	10 to 50%	46%			
COC(=O)c1cc2cc(NC(=O)C3CC3)cnc2[nH]1 [ND0044, Methyl 5-(cyclopropanecarboxamido)-1H-pyrrolo [2,3-b]pyridine-2-carboxylate]	< 10%	6%			
O=C(Nc1cnc2[nH]c(CNc3cccc(Br)c3)cc2c1)c1ccccc1Br [ND0027]	10 to 50%	29%			
COC(=O)c1cc2cc(NC(=O)c3cccc4c3OCC4)cnc2[nH]1 [ND0062, Methyl 5-(2,3-dihydrobenzofuran-7-carboxamido)-1H-pyrrolo[2,3-b]pyridine-2-carboxylate]	< 10%	6%			
COC(=O)c1cc2cc(NC(=O)c3cccnc3)cnc2[nH]1 [ND0050, Methyl 5-(nicotinamido)-1H-pyrrolo[2,3-b]pyridine-2-carboxylate]	10 to 50%	27%			
COC(=O)c1cc2cc(NC(=O)c3ccccc3Oc3ccccc3)cnc2[nH]1 [ND0059, Methyl 5-(2-phenoxybenzamido)-1H-pyrrolo[2,3-b]pyridine-2-carboxylate]	< 10%	5%			

— patent US8580815B2, “Derivatives of azaindoles as inhibitors of protein kinases ABL and SRC” (Oribase Pharma, priority 2009, dated 2013)
